The values below come from patent US11597724B2, “Herbicidally active 3-phenylisoxazoline-5-carboxamides of tetrahydro and dihydrofuran carboxylic acids and esters” (Bayer Aktiengesellschaft, priority 2017, dated 2023).

Holding throughout (format): in vivo
Test [1] relates to Alopecurus myosuroides. Briefly: Post-emergence herbicidal activity against ALOMY. Conditions: dosage 320 g/ha, rated about 3 weeks after treatment. Here is the method:
(§1) ABUTH: Abutilon theophrasti ALOMY: Alopecurus myosuroides 2. Post-Emergence Herbicidal Action and Crop Plant Compatibility Seeds of monocotyledonous and dicotyledonous weeds and crop plants are placed in sandy loam in plastic or wood-fiber pots, covered with soil and cultivated in a greenhouse under controlled growth conditions. 2 to 3 weeks after sowing, the test plants are treated at the one-leaf stage. The compounds of the invention, formulated in the form of wettable powders (WP) or as emulsion concentrates (EC), are then sprayed onto the green parts of the plants as aqueous suspension or emulsion with addition of 0.5% additive at a water application rate of 600 l/ha (converted). After the test plants had been kept in the greenhouse under optimum growth conditions for about 3 weeks, the activity of the preparations is rated visually in comparison to untreated controls. For example, 100% activity=the plants have died, 0% activity=like control plants.

Test [2] has as its system Stellaria media. Briefly: Post-emergence herbicidal activity against STEME. Conditions: dosage 320 g/ha, rated about 3 weeks after treatment. As to the method:
as §1, with “STEME: Stellaria media VERPE: Veronica persica” for “ABUTH: Abutilon theophrasti ALOMY: Alopecurus myosuroides”

The test system of test [3] is Setaria viridis. Description: Post-emergence herbicidal activity against SETVI. Conditions: dosage 320 g/ha, rated about 3 weeks after treatment. Here is the method:
as §1, with “POLCO: Polygonum convolvulus SETVI: Setaria viridis” for “ABUTH: Abutilon theophrasti ALOMY: Alopecurus myosuroides”

The test system of test [4] is Hordeum murinum. Briefly: Post-emergence herbicidal activity against HORMU. Conditions: dosage 320 g/ha. Here is the method: as §1, with “ECHCG: Echinochloa crus-galli HORMU: Hordeum murinum” for “ABUTH: Abutilon theophrasti ALOMY: Alopecurus myosuroides”
In test [5] the test system is Pharbitis purpurea. Briefly: Post-emergence herbicidal activity against PHBPU. Conditions: dosage 320 g/ha, rated about 3 weeks after treatment. As to the method: as §1, with “LOLRI: Lolium rigidum PHBPU: Pharbitis purpurea” for “ABUTH: Abutilon theophrasti ALOMY: Alopecurus myosuroides”
Test [6] concerns Abutilon theophrasti. Briefly: Post-emergence herbicidal activity against ABUTH. The conditions noted are these: dosage 320 g/ha, rated about 3 weeks after treatment. As to the method: as §1
Test [7] deals with Polygonum convolvulus. Description: Post-emergence herbicidal activity against POLCO. The conditions noted are these: dosage 320 g/ha, rated about 3 weeks after treatment. Here is the method: as §1, with “POLCO: Polygonum convolvulus SETVI: Setaria viridis” for “ABUTH: Abutilon theophrasti ALOMY: Alopecurus myosuroides”
Test [8] deals with Echinochloa crus-galli. Briefly: Post-emergence herbicidal activity against ECHCG. The conditions noted are these: dosage 320 g/ha, rated about 3 weeks after treatment. As to the method: as §1, with “ECHCG: Echinochloa crus-galli HORMU: Hordeum murinum” for “ABUTH: Abutilon theophrasti ALOMY: Alopecurus myosuroides”
In test [9] the test system is Viola tricolor. Briefly: Post-emergence herbicidal activity against VIOTR. The conditions noted are these: dosage 320 g/ha, rated about 3 weeks after treatment. Here is the method:
as §1, with “VIOTR: Viola tricolor” for “ABUTH: Abutilon theophrasti ALOMY: Alopecurus myosuroides”

Test [10] concerns Veronica persica. Briefly: Post-emergence herbicidal activity against VERPE. The conditions noted are these: dosage 320 g/ha. As to the method:
as §1, with “STEME: Stellaria media VERPE: Veronica persica” for “ABUTH: Abutilon theophrasti ALOMY: Alopecurus myosuroides”

The test system of test [11] is Avena fatua. Briefly: Post-emergence herbicidal activity against AVEFA. The conditions noted are these: dosage 320 g/ha, rated about 3 weeks after treatment. As to the method:
as §1, with “AMARE: Amaranthus retroflexus AVEFA: Avena fatua” for “ABUTH: Abutilon theophrasti ALOMY: Alopecurus myosuroides”

In test [12] the test system is Amaranthus retroflexus. Description: Post-emergence herbicidal activity against AMARE. The conditions noted are these: dosage 320 g/ha, rated about 3 weeks after treatment. Here is the method: as §1, with “AMARE: Amaranthus retroflexus AVEFA: Avena fatua” for “ABUTH: Abutilon theophrasti ALOMY: Alopecurus myosuroides”
Test [13] relates to Lolium rigidum. Description: Post-emergence herbicidal activity against LOLRI. Conditions: dosage 320 g/ha, rated about 3 weeks after treatment. Here is the method: as §1, with “LOLRI: Lolium rigidum PHBPU: Pharbitis purpurea” for “ABUTH: Abutilon theophrasti ALOMY: Alopecurus myosuroides”

For the molecule `CC1(C(=O)NC2COC(C(=O)OCc3cccc(F)c3)C2)CC(c2cc(F)cc(F)c2)=NO1` (mixture of isomers) [I-53], the “Post-emergence herbicidal activity against ALOMY in %” value in test [1] is reported as 90%. Also, the “Post-emergence herbicidal activity against STEME in %” value in [2] is 90%. The “Post-emergence herbicidal activity against SETVI in %” value in test [3] worked out at 90%. The “Post-emergence herbicidal activity against HORMU in %” value in test [4] came out at 90%. Further, the “Post-emergence herbicidal activity against PHBPU in %” value in test [5] is reported as 90%. For the same molecule, in [6], the “Post-emergence herbicidal activity against ABUTH in %” value was 90%. Further, the “Post-emergence herbicidal activity against POLCO in %” value in [7] was found to be 90%. Besides, the “Post-emergence herbicidal activity against ECHCG in %” value in test [8] was determined as 90%. In addition, the “Post-emergence herbicidal activity against VIOTR in %” value in [9] stood at 90%. Also, in test [10], the “Post-emergence herbicidal activity against VERPE in %” value amounted to 90%. The “Post-emergence herbicidal activity against AVEFA in %” value in test [11] was 90%. The “Post-emergence herbicidal activity against AMARE in %” value in test [12] is 90%. The “Post-emergence herbicidal activity against LOLRI in %” value in [13] was 90%.

Regarding `C=CC1(C(=O)NC2COC(C(=O)OCc3ccc(OC)cc3)C2)CC(c2cc(F)cc(F)c2)=NO1` (mixture of isomers) [I-54], the “Post-emergence herbicidal activity against ALOMY in %” value in test [1] is on record as 90%. Moreover, in test [2], the “Post-emergence herbicidal activity against STEME in %” value was determined as 90%. Moreover, the “Post-emergence herbicidal activity against SETVI in %” value in [3] is listed as 90%. For the same molecule, in test [4], the “Post-emergence herbicidal activity against HORMU in %” value is 90%. Moreover, the “Post-emergence herbicidal activity against PHBPU in %” value in [5] was 90%. In addition, the “Post-emergence herbicidal activity against ABUTH in %” value in test [6] turned out to be 90%. Moreover, the “Post-emergence herbicidal activity against POLCO in %” value in [7] is reported as 90%. In [8], the “Post-emergence herbicidal activity against ECHCG in %” value turned out to be 90%. In addition, the “Post-emergence herbicidal activity against VIOTR in %” value in [9] was determined as 90%. Also, the “Post-emergence herbicidal activity against VERPE in %” value in test [10] was found to be 90%. Also, the “Post-emergence herbicidal activity against AVEFA in %” value in test [11] was 90%. The “Post-emergence herbicidal activity against AMARE in %” value in [12] is given as 80%. For the same molecule, in [13], the “Post-emergence herbicidal activity against LOLRI in %” value was found to be 90%.

Regarding `C=CC1(C(=O)NC2COC(C(=O)OCc3cccc(F)c3)C2)CC(c2cc(F)cc(F)c2)=NO1` (mixture of isomers) [I-52], in test [1], the “Post-emergence herbicidal activity against ALOMY in %” value turned out to be 90%. In addition, the “Post-emergence herbicidal activity against STEME in %” value in [2] was 90%. In addition, the “Post-emergence herbicidal activity against SETVI in %” value in test [3] was found to be 90%. In [4], the “Post-emergence herbicidal activity against HORMU in %” value came to 90%. Further, the “Post-emergence herbicidal activity against PHBPU in %” value in test [5] is listed as 90%. The “Post-emergence herbicidal activity against ABUTH in %” value in [6] came out at 90%. Also, the “Post-emergence herbicidal activity against POLCO in %” value in test [7] amounted to 90%. Also, the “Post-emergence herbicidal activity against ECHCG in %” value in test [8] amounted to 90%. In test [9], the “Post-emergence herbicidal activity against VIOTR in %” value is reported as 90%. The “Post-emergence herbicidal activity against VERPE in %” value in [10] came out at 90%. Further, the “Post-emergence herbicidal activity against AVEFA in %” value in test [11] is 90%. Besides, the “Post-emergence herbicidal activity against AMARE in %” value in [12] stood at 90%. Besides, in test [13], the “Post-emergence herbicidal activity against LOLRI in %” value amounted to 90%.

Consider `CC(F)(F)C1(C(=O)NC2COC(C(=O)O)C2)CC(c2cc(F)cc(F)c2)=NO1` (centres unmarked) [I-50], for which the “Post-emergence herbicidal activity against ALOMY in %” value in test [1] was found to be 90%. For the same molecule, the “Post-emergence herbicidal activity against STEME in %” value in test [2] was determined as 90%. In addition, the “Post-emergence herbicidal activity against SETVI in %” value in test [3] amounted to 90%. Also, the “Post-emergence herbicidal activity against HORMU in %” value in test [4] is listed as 100%. Besides, the “Post-emergence herbicidal activity against PHBPU in %” value in [5] is recorded as 90%. Besides, in test [6], the “Post-emergence herbicidal activity against ABUTH in %” value worked out at 90%. For the same molecule, in [7], the “Post-emergence herbicidal activity against POLCO in %” value was 90%. In addition, the “Post-emergence herbicidal activity against ECHCG in %” value in [8] came out at 90%. For the same molecule, the “Post-emergence herbicidal activity against VIOTR in %” value in test [9] stood at 90%. Besides, the “Post-emergence herbicidal activity against VERPE in %” value in test [10] stood at 90%. Moreover, the “Post-emergence herbicidal activity against AVEFA in %” value in test [11] was 100%. In [12], the “Post-emergence herbicidal activity against AMARE in %” value is 80%. In addition, in test [13], the “Post-emergence herbicidal activity against LOLRI in %” value was 90%.

With `CC(C)OC(=O)C1CC(NC(=O)C2(C(C)(F)F)CC(c3cc(F)cc(F)c3)=NO2)CO1` (centres unmarked) [I-51], in test [1], the “Post-emergence herbicidal activity against ALOMY in %” value worked out at 100%. Moreover, in test [2], the “Post-emergence herbicidal activity against STEME in %” value was 90%. For the same molecule, in test [3], the “Post-emergence herbicidal activity against SETVI in %” value worked out at 90%. In test [4], the “Post-emergence herbicidal activity against HORMU in %” value stood at 90%. Moreover, the “Post-emergence herbicidal activity against PHBPU in %” value in [5] is on record as 90%. Also, in test [6], the “Post-emergence herbicidal activity against ABUTH in %” value was determined as 80%. The “Post-emergence herbicidal activity against POLCO in %” value in test [7] is on record as 90%. For the same molecule, the “Post-emergence herbicidal activity against ECHCG in %” value in [8] was 90%. Moreover, in test [9], the “Post-emergence herbicidal activity against VIOTR in %” value was determined as 90%. For the same molecule, the “Post-emergence herbicidal activity against VERPE in %” value in [10] worked out at 90%. Moreover, in [11], the “Post-emergence herbicidal activity against AVEFA in %” value is listed as 100%. Further, in test [12], the “Post-emergence herbicidal activity against AMARE in %” value was found to be 80%. Besides, the “Post-emergence herbicidal activity against LOLRI in %” value in [13] came out at 90%.
